In patent US9573957B2 (Boehringer Ingelheim International GmbH, priority 2013, dated 2017) one finds IC50 data, which are given here for 26 compounds.

Each structure is given as a SMILES string. pIC50: −log10 of the molar value.

What is called pIC50 is −log10 of the IC50, conventionally taken in molar units.

The target in one experiment is human LTA4 hydrolase (Homo sapiens (Human), UniProt P09960). The experiment is described as follows: LTA4H Enzyme assay (peptidase, Arg-AMC cleavage). The experiment is classed as biochemical. Particulars: LTA4H Enzyme 1 nM, Arg-AMC substrate 50 μM, room temperature 1 h, fluorescence. In short, it runs like this:
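Peptidase activity of human LTA4H (1 nM final) on Arg-AMC (50 μM final), with compound, 1 h at room temperature. Buffer: 50 mM Tris-HCl pH 7.5, 100 mM KCl, 0.5% BSA.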

Experiment [1] has as its system synthesis of LTB4 in human whole blood. The experiment is described as follows: LTB4 production inhibition assay in human whole blood (HWB). In kind it is cell-based. The settings on record: heparinized human whole blood, 15 min at 37° C., Calcimycin 20 μM 30 min, plasma LTB4 by HTRF. In short, it runs like this:
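Heparinized human whole blood preincubated with compound 15 min at 37° C, then stimulated with calcimycin (20 μM final) for 30 min at 37° C. Plasma separated by centrifugation; LTB4 measured by antibody-based homogeneous time-resolved fluorescence.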

Sequence of human LTA4 hydrolase (P09960 whole entry): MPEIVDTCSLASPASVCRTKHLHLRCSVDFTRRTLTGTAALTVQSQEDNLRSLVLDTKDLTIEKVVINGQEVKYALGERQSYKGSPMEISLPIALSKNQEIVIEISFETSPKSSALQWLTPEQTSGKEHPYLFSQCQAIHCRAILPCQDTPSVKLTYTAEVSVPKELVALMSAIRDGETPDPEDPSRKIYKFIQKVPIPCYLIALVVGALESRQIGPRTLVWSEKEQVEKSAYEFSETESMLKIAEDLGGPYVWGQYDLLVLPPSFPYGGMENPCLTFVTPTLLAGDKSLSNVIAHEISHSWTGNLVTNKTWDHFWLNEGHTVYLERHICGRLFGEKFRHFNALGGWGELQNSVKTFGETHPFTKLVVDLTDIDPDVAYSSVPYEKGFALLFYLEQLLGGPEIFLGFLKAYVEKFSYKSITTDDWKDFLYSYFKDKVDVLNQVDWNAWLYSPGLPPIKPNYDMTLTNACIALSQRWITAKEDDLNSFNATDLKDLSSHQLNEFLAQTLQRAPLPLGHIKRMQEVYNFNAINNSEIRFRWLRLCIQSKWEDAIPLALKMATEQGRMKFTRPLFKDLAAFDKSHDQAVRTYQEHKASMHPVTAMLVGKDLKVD

For the compound `CC(C)[C@@H](O)C(=O)N1CCN(Cc2ccc3cc(Oc4ccc(-c5ccn[nH]5)cn4)ccc3n2)CC1` [Example 120, (R)-2-Hydroxy-3-methyl-1-(4-{6-[5-(2H-pyrazol-3-yl)-pyridin-2-yloxy]-quinolin-2-ylmethyl}-piperazin-1-yl)-butan-1-one], the negative-log IC50 (pIC50) against human LTA4 hydrolase is 8.23; in experiment [1] it was 6.15.
For `C[C@@H](O)CC(=O)N1CCN(Cc2ccc3cc(Oc4ccc(-c5ccn[nH]5)cn4)ccc3n2)CC1` [Example 121, (R)-3-Hydroxy-1-(4-{6-[5-(2H-pyrazol-3-yl)-pyridin-2-yloxy]-quinolin-2-ylmethyl}-piperazin-1-yl)-butan-1-one], in that order: 8.31 and 6.21.
With `CC(C)(O)CC(=O)N1CCN(Cc2ccc3cc(Oc4ccc(-c5ccn[nH]5)cn4)ccc3n2)CC1` [Example 122, 3-Hydroxy-3-methyl-1-(4-{6-[5-(2H-pyrazol-3-yl)-pyridin-2-yloxy]-quinolin-2-ylmethyl}-piperazin-1-yl)-butan-1-one], the pIC50 was 8.41 on human LTA4 hydrolase and 6.24 in experiment [1].
Turning to `C[C@@H](O)C(=O)N1CCN(Cc2ccc3cc(Oc4ccc(-c5ccn[nH]5)cn4)ccc3n2)CC1` [Example 123, (R)-2-Hydroxy-1-(4-{6-[5-(2H-pyrazol-3-yl)-pyridin-2-yloxy]-quinolin-2-ylmethyl}-piperazin-1-yl)-propan-1-one], the pIC50 against human LTA4 hydrolase is 9.06; in experiment [1], 6.70.
For `CCOCC(=O)N1CCN(Cc2ccc3cc(Oc4ccc(-c5ccn[nH]5)cn4)ccc3n2)CC1` [Example 124, 2-Ethoxy-1-(4-{6-[5-(2H-pyrazol-3-yl)-pyridin-2-yloxy]-quinolin-2-ylmethyl}-piperazin-1-yl)-ethanone] the same measures were 8.59 and 6.38.
`CC(C)(O)C(=O)N1CCN(Cc2ccc3cc(Oc4ccc(-c5ccn[nH]5)cn4)ccc3n2)CC1` [Example 125, 2-Hydroxy-2-methyl-1-(4-{6-[5-(2H-pyrazol-3-yl)-pyridin-2-yloxy]-quinolin-2-ylmethyl}-piperazin-1-yl)-propan-1-one]: the negative-log IC50 (pIC50) against human LTA4 hydrolase was 8.92; in experiment [1], 6.47.
For `O=C(N1CCN(Cc2ccc3cc(Oc4ccc(-c5ccn[nH]5)cn4)ccc3n2)CC1)C1(O)CC1` [Example 126, (1-Hydroxy-cyclopropyl)-(4-{6-[5-(2H-pyrazol-3-yl)-pyridin-2-yloxy]-quinolin-2-ylmethyl}-piperazin-1-yl)-methanone] the same measures were 9.00 and 6.60.
For `CC[C@H](O)C(=O)N1CCN(Cc2ccc3cc(Oc4ccc(-c5ccn[nH]5)cn4)ccc3n2)CC1` [Example 127, (S)-2-Hydroxy-1-(4-{6-[5-(2H-pyrazol-3-yl)-pyridin-2-yloxy]-quinolin-2-ylmethyl}-piperazin-1-yl)-butan-1-one], in that order: 8.64 and 6.49.
As for `COC(C)(C)C(=O)N1CCN(Cc2ccc3cc(Oc4ccc(-c5ccn[nH]5)cn4)ccc3n2)CC1` [Example 128, 2-Methoxy-2-methyl-1-(4-{6-[5-(2H-pyrazol-3-yl)-pyridin-2-yloxy]-quinolin-2-ylmethyl}-piperazin-1-yl)-propan-1-one], the values for the negative-log IC50 (pIC50) (at human LTA4 hydrolase; in experiment [1]) were 9.25 and 6.62, respectively.
Consider `C[C@H](O)C(=O)N1CCN(Cc2ccc3cc(Oc4ccc(-c5ccn[nH]5)cn4)ccc3n2)CC1` [Example 129, (S)-2-Hydroxy-1-(4-{6-[5-(2H-pyrazol-3-yl)-pyridin-2-yloxy]-quinolin-2-ylmethyl}-piperazin-1-yl)-propan-1-one], for which the negative-log IC50 (pIC50) was 9.07 at human LTA4 hydrolase and 6.74 in experiment [1].
For `CC(C)OCC(=O)N1CCN(Cc2ccc3cc(Oc4ccc(-c5ccn[nH]5)cn4)ccc3n2)CC1` [Example 130, 2-Isopropoxy-1-(4-{6-[5-(2H-pyrazol-3-yl)-pyridin-2-yloxy]-quinolin-2-ylmethyl}-piperazin-1-yl)-ethanone], the pIC50 was 8.60 on human LTA4 hydrolase and 6.20 in experiment [1].
For `O=C(C1CCOCC1)N1CCN(Cc2ccc3cc(Oc4ccc(-c5ccn[nH]5)cn4)ccc3n2)CC1` [Example 131, (4-{6-[5-(2H-Pyrazol-3-yl)-pyridin-2-yloxy]-quinolin-2-ylmethyl}-piperazin-1-yl)-(tetrahydro-pyran-4-yl)-methanone], in that order: 8.64 and 6.44.
For `O=C([C@@H]1CCCO1)N1CCN(Cc2ccc3cc(Oc4ccc(-c5ccn[nH]5)cn4)ccc3n2)CC1` [Example 132, (4-{6-[5-(2H-Pyrazol-3-yl)-pyridin-2-yloxy]-quinolin-2-ylmethyl}-piperazin-1-yl)-(S)-tetrahydro-furan-2-yl-methanone] the same measures were 8.54 and 6.20.
For `O=C([C@H]1CCCO1)N1CCN(Cc2ccc3cc(Oc4ccc(-c5ccn[nH]5)cn4)ccc3n2)CC1` [Example 133, (4-{6-[5-(2H-Pyrazol-3-yl)-pyridin-2-yloxy]-quinolin-2-ylmethyl}-piperazin-1-yl)-(R)-tetrahydro-furan-2-yl-methanone], in that order: 8.54 and 6.49.
For `CC[C@@H](O)C(=O)N1CCN(Cc2ccc3cc(Oc4ccc(-c5ccn[nH]5)cn4)ccc3n2)CC1` [Example 134, (R)-2-Hydroxy-1-(4-{6-[5-(2H-pyrazol-3-yl)-pyridin-2-yloxy]-quinolin-2-ylmethyl}-piperazin-1-yl)-butan-1-one], the pIC50 is 8.51 on human LTA4 hydrolase and 6.39 in experiment [1].
Regarding `CC(C)(CO)C(=O)N1CCN(Cc2ccc3cc(Oc4ccc(-c5ccn[nH]5)cn4)ccc3n2)CC1` [Example 135, 3-Hydroxy-2,2-dimethyl-1-(4-{6-[5-(2H-pyrazol-3-yl)-pyridin-2-yloxy]-quinolin-2-ylmethyl}-piperazin-1-yl)-propan-1-one], the negative-log IC50 (pIC50) against human LTA4 hydrolase is 8.27; in experiment [1], 6.21.
For `O=C(C1C2COCC21)N1CCN(Cc2ccc3cc(Oc4ccc(-c5ccn[nH]5)cn4)ccc3n2)CC1` (stereo not shown) [Example 136, (3-Oxa-bicyclo[3.1.0]hex-6-yl)-(4-{6-[5-(2H-pyrazol-3-yl)-pyridin-2-yloxy]-quinolin-2-ylmethyl}-piperazin-1-yl)-methanone] the same measures were 8.22 and 6.11.
As to `CC(C)[C@H](O)C(=O)N1CCN(Cc2ccc3cc(Oc4ccc(-c5ccn[nH]5)cn4)ccc3n2)CC1` [Example 137, (S)-2-Hydroxy-3-methyl-1-(4-{6-[5-(2H-pyrazol-3-yl)-pyridin-2-yloxy]-quinolin-2-ylmethyl}-piperazin-1-yl)-butan-1-one], the negative-log IC50 (pIC50) is 8.60 at human LTA4 hydrolase and 6.36 in experiment [1].
With `O=C(N1CCN(Cc2ccc3cc(Oc4ccc(-c5ccn[nH]5)cn4)ccc3n2)CC1)C1(CO)CC1` [Example 138, (1-Hydroxymethyl-cyclopropyl)-(4-{6-[5-(2H-pyrazol-3-yl)-pyridin-2-yloxy]-quinolin-2-ylmethyl}-piperazin-1-yl)-methanone], the results for the pIC50 (against human LTA4 hydrolase; in experiment [1]) were 8.77 and 6.47, respectively.
For `O=C(C1CC(O)C1)N1CCN(Cc2ccc3cc(Oc4ccc(-c5ccn[nH]5)cn4)ccc3n2)CC1` (stereo not shown) [Example 139, (3-Hydroxy-cyclobutyl)-(4-{6-[5-(2H-pyrazol-3-yl)-pyridin-2-yloxy]-quinolin-2-ylmethyl}-piperazin-1-yl)-methanone] the same measures were 8.52 and 6.30.
For `CO[C@H](C)C(=O)N1CCN(Cc2ccc3cc(Oc4ccc(-c5ccn[nH]5)cn4)ccc3n2)CC1` [Example 140, (R)-2-Methoxy-1-(4-{6-[5-(2H-pyrazol-3-yl)-pyridin-2-yloxy]-quinolin-2-ylmethyl}-piperazin-1-yl)-propan-1-one] the same measures were 9.24 and 6.82.
On to `O=C([C@@H]1CCOC1)N1CCN(Cc2ccc3cc(Oc4ccc(-c5ccn[nH]5)cn4)ccc3n2)CC1` [Example 141, (4-{6-[5-(2H-Pyrazol-3-yl)-pyridin-2-yloxy]-quinolin-2-ylmethyl}-piperazin-1-yl)-(R)-tetrahydro-furan-3-yl-methanone], for which the figures for the pIC50 (against human LTA4 hydrolase; in experiment [1]) were 8.57 and 6.40, respectively.
For `COCCCC(=O)N1CCN(Cc2ccc3cc(Oc4ccc(-c5ccn[nH]5)cn4)ccc3n2)CC1` [Example 142, 4-Methoxy-1-(4-{6-[5-(2H-pyrazol-3-yl)-pyridin-2-yloxy]-quinolin-2-ylmethyl}-piperazin-1-yl)-butan-1-one] the same measures were 8.60 and 6.03.
For `O=C(N1CCN(Cc2ccc3cc(Oc4ccc(-c5ccn[nH]5)cn4)ccc3n2)CC1)C1(O)CCC1` [Example 143, (1-Hydroxy-cyclobutyl)-(4-{6-[5-(2H-pyrazol-3-yl)-pyridin-2-yloxy]-quinolin-2-ylmethyl}-piperazin-1-yl)-methanone] the same measures were 8.74 and 6.24.
Take `CCCOCC(=O)N1CCN(Cc2ccc3cc(Oc4ccc(-c5ccn[nH]5)cn4)ccc3n2)CC1` [Example 144, 2-Propoxy-1-(4-{6-[5-(2H-pyrazol-3-yl)-pyridin-2-yloxy]-quinolin-2-ylmethyl}-piperazin-1-yl)-ethanone]: the pIC50 at human LTA4 hydrolase was 8.64; in experiment [1], 6.18.
For `CC(C)(C#N)C(=O)N1CCN(Cc2ccc3cc(Oc4ccc(-c5ccn[nH]5)cn4)ccc3n2)CC1` [Example 145, 2,2-Dimethyl-3-oxo-3-(4-{6-[5-(2H-pyrazol-3-yl)-pyridin-2-yloxy]-quinolin-2-ylmethyl}-piperazin-1-yl)-propionitrile] the same measures were 8.89 and 6.29.
